In US12037415B2, “Peptide and pharmaceutical composition for treating an eye disease comprising the same as an active pharmaceutical ingredient” (YuYu Pharma, Inc., priority 2017, dated 2024):
Non-standard residues stand in square brackets, D forms with d. Residues, ends and D or L forms follow the SMILES beside them. No end group written: not given here. ξ: configuration not given here. Pro(trans-4-F) = O=C(O)[C@@H]1C[C@@H](F)CN1; Pro(4,4-Me2) = CC1(C)CN[C@H](C(=O)O)C1; Pro(4-oxo) = O=C1CN[C@H](C(=O)O)C1; Hyp = O=C(O)[C@@H]1C[C@@H](O)CN1; Ile(3ξ) = CCC(C)[C@H](N)C(=O)O; Thr(3ξ) = CC(O)[C@H](N)C(=O)O; hSer = N[C@@H](CCO)C(=O)O

Experiments:
[1] = tested on: cornea of rats with dry eye syndrome (ELGE); assay: Corneal permeability of fluorescent dye (corneal damage) in rats with ELGE-induced dry eye syndrome; format: in vivo, rat; conditions: 0.3% solution, day 14 after the administration
Text: In order to evaluate the eye protection effect on dry eye syndrome by YDE-001 to YDE-028 prepared in Working Example 1, a total of 320 Sprague-Dawley-type male rats (OrientBio, Seungnam, Korea) were adapted for 7 days. Thereafter, dry eye syndrome was induced in 264 test rats through extraorbital lacrimal gland excision (hereinafter, ELGE). 8 test rats without the eye abnormality were subjected to a sham operation as a control group.
The rats were systemically anesthetized by inhaling a mixed gas of 2% to 3% of isoflurane (Hana Pharm. Co., Hwasung, Korea), 70% of N2O, and 28.6% of O2 using a rodent anesthesia machine (Surgivet, Waukesha, Wis., USA) and a ventilator (Model 687, Harvard Apparatus, Cambridge, UK). Thereafter, the extraorbital lacrimal gland located in the subdermal area above the masseter muscle and under the optic nerve was excised through a transverse incision in a size of 10 mm on the anterior part of the left ear tragus. The skin was sutured by a general method. […] After 6 days following the ELGE operation, confirmation was performed through the Schirmer test by measuring the amount of tear secretion whether dry eye syndrome had been induced. Meanwhile, each rat of the control group with the sham operation was checked for the presence and location of the extraorbital lacrimal gland through a skin incision, and the skin was then sutured without the excision thereof (FIG. 134).
In addition, in order to evaluate the eye protection effect on dry eye syndrome by YDE-029 to YDE-043 prepared in Working Example 1, a total of 200 Sprague-Dawley-type male rats (OrientBio, Seungnam, Korea) were adapted for 7 days. Dry eye syndrome was induced in 165 test rats through the ELGE. 8 test rats without the eye abnormality were subjected to the sham operation as a control group. The ELGE was carried out as described above.
(§1) For YDE-001 to YDE-028, YY-102 and the 28 YDE-series were each dissolved in physiological saline at a concentration of 3 mg/ml and administered at a dose of 5 μl/eye at 9:30 am and 3:30 pm daily for 14 days after 7 days from the ELGE operation for a total of 28 times. The DS solution was dissolved in physiological saline at a concentration of 30 mg/ml and administered at a dose of 5 μl/eye twice a day for 14 days after 7 days from the ELGE operation for a total of 28 times. For the sham control and the ELGE control groups, the same stimulation as the administration was applied. In order to prevent excessive eye dryness, the same volume of physiological saline was applied in the same manner in place of the test substances.
as §1, with “Further, For YDE-029” for “For YDE-001”, “Further, For YDE-029 to YDE-043,” for “For YDE-001 to YDE-028,”, “YDE-029 to YDE-043, YY-102 and” for “YDE-001 to YDE-028, YY-102 and”, “and the 15 YDE-series were” for “and the 28 YDE-series were”, “the test substances (FIG. 137).” for “the test substances.”
After YDE-001 to YDE-028 were each administered to the eyes […], the changes in the corneal permeability were checked.
In order to measure the corneal permeability, Zolethyl 50™ (Virbac Lab., Carros, France), an animal anesthetic, was intraperitoneally injected at a dose of 25 mg/kg. Thereafter, saline containing a 1% (v/v) fluorescent solution (fluorescein sodium salt, Tokyo Kasei Kogyo Co., Tokyo, Japan) was applied to the eyes at a dose of 5 μl/eye. The eyes thus treated were closed and fixed with a tape. After 1 hour, the remaining fluorescent solution was removed using a cotton swab (FIG. 142). […]

[2] = Stability in aqueous solution, amount of related substances under long-term storage conditions; format: physicochemical; conditions: glass vial, 25° C., 75% RH
Experimental: In order to confirm the stability of each test substance in an aqueous solution, […] of each sample was dissolved in 1 ml of water to a concentration of 1 mg/ml, which was then charged to a glass vial, plugged with a rubber cap, sealed with an aluminum cap, and stored under long-term storage conditions (25° C., 75% RH). The stability of the test substance was evaluated by measuring the amount of related substances at the time of one week, two weeks, four weeks, eight weeks, and twelve weeks under the long-term storage conditions.

[3] = study of YDE-001 to YDE-028 (Table 16)
[4] = study of YDE-029 to YDE-043 (Table 17)

CC(C)C[C@H](NC(=O)CNC(=O)[C@@H](NC(=O)[C@H](CCC(N)=O)NC(=O)CNC(=O)[C@@H]1C[C@@H](O)CN1)C(C)O)C(=O)N[C@@H](C)C(=O)NCC(=O)N1CCC[C@H]1C(=O)N[C@@H](CCCCN)C(=O)O (stereo partly drawn) [YDE-007, HyP-Gly-Gln-Thr-Gly-Leu-Ala-Gly-Pro-Lys] (H-[Hyp]GQ[Thr(3ξ)]GLAGPK-OH)
Permeability of fluorescent dye (%) [1, 3]: 32.79 ± 10.77% | Amount of related substances (%; after 12 weeks) [2]: 3.76%

CC(C)C[C@H](NC(=O)CNC(=O)[C@H](Cc1ccccc1)NC(=O)[C@H](CCC(N)=O)NC(=O)CNC(=O)[C@@H]1C[C@@H](O)CN1)C(=O)N[C@@H](C)C(=O)NCC(=O)N1CCC[C@H]1C(=O)N[C@@H](CCCCN)C(=O)O [YDE-012, HyP-Gly-Gln-Phe-Gly-Leu-Ala-Gly-Pro-Lys] (H-[Hyp]GQFGLAGPK-OH)
Permeability of fluorescent dye (%) [1, 3]: 31.01 ± 11.38% | Amount of related substances (%; after 12 weeks) [2]: 3.57%

CC(C)C[C@H](NC(=O)[C@@H](NC(=O)[C@H](CC(=O)O)NC(=O)[C@H](CCC(N)=O)NC(=O)CNC(=O)[C@@H]1C[C@@H](O)CN1)C(C)C)C(=O)N[C@@H](C)C(=O)NCC(=O)N1CCC[C@H]1C(=O)N[C@@H](CCCCN)C(=O)O [YDE-015, HyP-Gly-Gln-Asp-Val-Leu-Ala-Gly-Pro-Lys] (H-[Hyp]GQDVLAGPK-OH)
Permeability of fluorescent dye (%) [1, 3]: 15.95 ± 6.48% | Amount of related substances (%; after 12 weeks) [2]: 13.05%

CC(C)C[C@H](NC(=O)[C@H](C)NC(=O)[C@H](CC(=O)O)NC(=O)[C@H](CCC(N)=O)NC(=O)CNC(=O)[C@@H]1C[C@@H](O)CN1)C(=O)N[C@@H](C)C(=O)NCC(=O)N1CCC[C@H]1C(=O)N[C@@H](CCCCN)C(=O)O [YDE-018, HyP-Gly-Gln-Asp-Ala-Leu-Ala-Gly-Pro-Lys] (H-[Hyp]GQDALAGPK-OH)
Permeability of fluorescent dye (%) [1, 3]: 38.19 ± 10.96% | Amount of related substances (%; after 12 weeks) [2]: 25.39%

CC(C)C[C@H](NC(=O)CNC(=O)[C@H](CCO)NC(=O)[C@H](CCC(N)=O)NC(=O)CNC(=O)[C@@H]1C[C@@H](O)CN1)C(=O)N[C@@H](C)C(=O)NCC(=O)N1CCC[C@H]1C(=O)N[C@@H](CCCCN)C(=O)O [YDE-026, HyP-Gly-Gln-Ser(Homo)-Gly-Leu-Ala-Gly-Pro-Lys] (H-[Hyp]GQ[hSer]GLAGPK-OH)
Permeability of fluorescent dye (%) [1, 3]: 22.63 ± 11.23% | Amount of related substances (%; after 12 weeks) [2]: 10.15%

CCC(C)[C@H](NC(=O)[C@H](CC(=O)O)NC(=O)[C@H](CCC(N)=O)NC(=O)CNC(=O)[C@@H]1C[C@@H](O)CN1)C(=O)N[C@@H](CC(C)C)C(=O)N[C@@H](C)C(=O)NCC(=O)N1CCC[C@H]1C(=O)N[C@@H](CCCCN)C(=O)O (stereo partly drawn) [YDE-016, HyP-Gly-Gln-Asp-Ile-Leu-Ala-Gly-Pro-Lys] (H-[Hyp]GQD[Ile(3ξ)]LAGPK-OH)
Permeability of fluorescent dye (%) [1, 3]: 24.57 ± 10.34% | Amount of related substances (%; after 12 weeks) [2]: 11.33%

CC(C)C[C@H](NC(=O)CNC(=O)[C@H](Cc1ccc(O)cc1)NC(=O)[C@H](CCC(N)=O)NC(=O)CNC(=O)[C@@H]1C[C@@H](O)CN1)C(=O)N[C@@H](C)C(=O)NCC(=O)N1CCC[C@H]1C(=O)N[C@@H](CCCCN)C(=O)O [YDE-013, HyP-Gly-Gln-Tyr-Gly-Leu-Ala-Gly-Pro-Lys] (H-[Hyp]GQYGLAGPK-OH)
Permeability of fluorescent dye (%) [1, 3]: 32.24 ± 7.84% | Amount of related substances (%; after 12 weeks) [2]: 5.92%

CC(C)C[C@H](NC(=O)CNC(=O)[C@H](C)NC(=O)[C@H](CCC(N)=O)NC(=O)CNC(=O)[C@@H]1C[C@@H](O)CN1)C(=O)N[C@@H](C)C(=O)NCC(=O)N1CCC[C@H]1C(=O)N[C@@H](CCCCN)C(=O)O [YDE-008, HyP-Gly-Gln-Ala-Gly-Leu-Ala-Gly-Pro-Lys] (H-[Hyp]GQAGLAGPK-OH)
Permeability of fluorescent dye (%) [1, 3]: 20.32 ± 11.87% | Amount of related substances (%; after 12 weeks) [2]: 4.42%

CC(C)C[C@H](NC(=O)CNC(=O)[C@H](CCC(=O)O)NC(=O)[C@H](CCC(N)=O)NC(=O)CNC(=O)[C@@H]1C[C@@H](O)CN1)C(=O)N[C@@H](C)C(=O)NCC(=O)N1CCC[C@H]1C(=O)N[C@@H](CCCCN)C(=O)O [YDE-001, HyP-Gly-Gln-Glu-Gly-Leu-Ala-Gly-Pro-Lys] (H-[Hyp]GQEGLAGPK-OH)
Permeability of fluorescent dye (%) [1, 3]: 25.49 ± 11.62% | Amount of related substances (%; after 12 weeks) [2]: 3.92%

CC(C)C[C@H](NC(=O)CNC(=O)[C@H](CC(C)C)NC(=O)[C@H](CCC(N)=O)NC(=O)CNC(=O)[C@@H]1CC(=O)CN1)C(=O)N[C@@H](C)C(=O)NCC(=O)N1CCC[C@H]1C(=O)N[C@@H](CCCCN)C(=O)O [YDE-035, (4-oxo)Pro-Gly-Gln-Leu-Gly-Leu-Ala-Gly-Pro-Lys] (H-[Pro(4-oxo)]GQLGLAGPK-OH)
Permeability of fluorescent dye (%) [1, 4]: 27.62 ± 6.51%

CC(C)C[C@H](NC(=O)CNC(=O)[C@H](CO)NC(=O)[C@H](CCC(N)=O)NC(=O)CNC(=O)[C@@H]1C[C@@H](O)CN1)C(=O)N[C@@H](C)C(=O)NCC(=O)N1CCC[C@H]1C(=O)N[C@@H](CCCCN)C(=O)O [YDE-006, HyP-Gly-Gln-Ser-Gly-Leu-Ala-Gly-Pro-Lys] (H-[Hyp]GQSGLAGPK-OH)
Permeability of fluorescent dye (%) [1, 3]: 33.23 ± 13.26% | Amount of related substances (%; after 12 weeks) [2]: 3.67%

PGQLGLAGPK [YDE-037, Pro-Gly-Gln-Leu-Gly-Leu-Ala-Gly-Pro-Lys]
Permeability of fluorescent dye (%) [1, 4]: 36.30 ± 9.75%

CC(C)C[C@H](NC(=O)CNC(=O)[C@H](CC(C)C)NC(=O)[C@H](CCC(N)=O)NC(=O)CNC(=O)[C@@H]1C[C@@H](O)CN1)C(=O)N[C@@H](C)C(=O)NCC(=O)N1CCC[C@H]1C(=O)N[C@@H](CCC(=O)O)C(=O)O [YDE-031, HyP-Gly-Gln-Leu-Gly-Leu-Ala-Gly-Pro-Glu] (H-[Hyp]GQLGLAGPE-OH)
Permeability of fluorescent dye (%) [1, 4]: 33.35 ± 11.01%

CC(C)C[C@H](NC(=O)CNC(=O)[C@H](CC(C)C)NC(=O)[C@H](CCC(N)=O)NC(=O)CNC(=O)[C@@H]1CC(C)(C)CN1)C(=O)N[C@@H](C)C(=O)NCC(=O)N1CCC[C@H]1C(=O)N[C@@H](CCCCN)C(=O)O [YDE-040, (4-Dimethyl)Pro-Gly-Gln-Leu-Gly-Leu-Ala-Gly-Pro-Lys] (H-[Pro(4,4-Me2)]GQLGLAGPK-OH)
Permeability of fluorescent dye (%) [1, 4]: 18.33 ± 9.41%

CC(C)C[C@H](NC(=O)CNC(=O)[C@H](CC(C)C)NC(=O)[C@H](CCC(N)=O)NC(=O)CNC(=O)[C@@H]1C[C@@H](F)CN1)C(=O)N[C@@H](C)C(=O)NCC(=O)N1CCC[C@H]1C(=O)N[C@@H](CCCCN)C(=O)O [YDE-039, (4-Fluoro)Pro-Gly-Gln-Leu-Gly-Leu-Ala-Gly-Pro-Lys] (H-[Pro(trans-4-F)]GQLGLAGPK-OH)
Permeability of fluorescent dye (%) [1, 4]: 29.94 ± 11.40%

CC(C)C[C@H](NC(=O)[C@H](CCC(N)=O)NC(=O)CNC(=O)[C@@H]1C[C@@H](O)CN1)C(=O)NCC(=O)O [YDE-043, HyP-Gly-Gln-Leu-Gly] (H-[Hyp]GQLG-OH)
Permeability of fluorescent dye (%) [1, 4]: 19.04 ± 7.36%

CC(C)C[C@H](NC(=O)CNC(=O)[C@H](CC(C)C)NC(=O)[C@H](CCC(N)=O)NC(=O)CNC(=O)[C@@H]1C[C@@H](O)CN1)C(=O)O [YDE-042, HyP-Gly-Gln-Leu-Gly-Leu] (H-[Hyp]GQLGL-OH)
Permeability of fluorescent dye (%) [1, 4]: 20.72 ± 11.37%
